Source: patent US20260167614A1, “IDENTIFICATION OF SMALL MOLECULES THAT RECRUIT AND ACTIVATE RNASE L” (UNIVERSITY OF FLORIDA RESEARCH FOUNDATION, INCORPORATED, priority 2022, published 2026)
Changes are numbered by the printed parent chain. Each block holds one compound with its values, some of them ahead of it.

Key:
RNase L [1] = target: T1, RNase L (Homo sapiens, UniProt Q05823); experiment: FRET-based in vitro RNA cleavage assay (RNase L activation); format: biochemical; conditions: for Relative RNA Cleavage (cleavage of fluorescently labeled RNA, RNase L activation): dose response, fluorescence normalized to 50 μM of 6
T1 construct: made in house; host or cells: Rosetta DE3 E. coli
T1 sequence (Q05823 1-741): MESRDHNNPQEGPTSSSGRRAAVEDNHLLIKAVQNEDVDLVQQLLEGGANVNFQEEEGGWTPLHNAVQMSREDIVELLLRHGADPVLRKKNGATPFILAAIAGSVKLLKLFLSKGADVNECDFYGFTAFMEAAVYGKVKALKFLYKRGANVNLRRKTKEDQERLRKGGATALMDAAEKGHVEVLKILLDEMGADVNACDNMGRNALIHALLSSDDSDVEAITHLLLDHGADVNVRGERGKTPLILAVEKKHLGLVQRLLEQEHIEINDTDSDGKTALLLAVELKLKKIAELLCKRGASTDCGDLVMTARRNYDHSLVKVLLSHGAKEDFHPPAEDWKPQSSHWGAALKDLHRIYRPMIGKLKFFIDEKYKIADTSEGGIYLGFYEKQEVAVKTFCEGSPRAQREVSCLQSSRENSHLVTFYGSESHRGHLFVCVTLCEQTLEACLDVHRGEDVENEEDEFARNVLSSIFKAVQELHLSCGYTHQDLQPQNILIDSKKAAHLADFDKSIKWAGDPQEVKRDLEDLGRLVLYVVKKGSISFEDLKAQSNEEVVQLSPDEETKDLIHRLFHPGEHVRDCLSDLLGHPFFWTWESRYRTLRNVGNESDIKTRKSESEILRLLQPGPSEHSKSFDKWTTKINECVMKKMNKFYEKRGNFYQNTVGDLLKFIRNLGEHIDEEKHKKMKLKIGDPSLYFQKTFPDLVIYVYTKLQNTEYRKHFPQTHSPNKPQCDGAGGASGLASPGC
Excerpt: The four compounds with the highest confidence (enrichment scores>300 and copy number>25) were selected for further study. The compounds were re-synthesized without the encoding DNA tag and were studied for RNase L activation using a fluorescence-based in vitro assay, completed as previously described.^16 In brief, the assay uses an dually labeled RNA [5′ fluorescein (6-FAM) and 3′ black hole quencher (BHQ)] that harbors multiple preferred substates for RNase L (FIG. 2A).^16 In the presence of a binder that activates RNase L, the enzyme cleaves the RNA, resulting in an increased fluorescence signal. […] 2 and 3 are similar in structure, differing only by the first building block, phenylglycine in 2 and indoline in 3 (FIG. 2C).
FRET-Based In Vitro RNA Cleavage Assay. Samples were prepared as previously described.^3 Briefly, an RNA construct with multiple preferred RNase L cleavage sites^7 (5′ 6-FAM-[…]-3′ BHQ; 100 nM final concentration) was folded in 1× RNase L Assay Buffer (25 mM Tris-HCl, pH 7.4, and 100 mM NaCl) for 1 min at 95° C. followed by snap cooling on ice for 10 min. Following cooling, β-mercaptoethanol (7 mM), ATP (50 μM), and MgCl2 (1 mM) were added. Compound or DMSO (1%; vehicle) was added to the folded RNA, and the samples were incubated for 15 min. Recombinant GST-RNase L-His was then added to the solution (50 nM final concentration), affording a total volume of 33 μL. Technical triplicates (10 μL) were dispensed into 384-well low volume non-binding plate (Corning 4515), and the samples were incubated in the dark for 1 h. Fluorescence was measured using a Tecan infinite M1000 Pro plate reader using an excitation wavelength of 485 nm, emission wavelength of 520 nm, and gain of 100. Data are reported as “Relative RNA Cleavage”, normalizing fluorescence to the highest level of cleavage observed—upon addition of 50 μM of 6, which was set to 1.

RNase L [2] = target: T1, RNase L; experiment: RNase L dimerization in vitro by Western blotting; format: biochemical
Procedure: The position within 2 suitable for conjugation was then determined. […] Therefore, this position was derivatized and assessed for RNase L activation. […] A polyethylene glycol (PEG) linker terminated with a t-butyl ester was attached to yield 5 (FIG. 2C).

RNase L [3] = target: T2, RNase L (Homo sapiens, UniProt Q05823, H672N); experiment: Saturation transfer difference (STD) NMR; format: binding; conditions: 3 μM protein, 300 μM compound
T2 construct: GST (N, cleaved yes); made in house; host or cells: BL21 AI Escherichia coli
T2 sequence (Q05823 1-741 H672N): T1 sequence (Q05823 1-741) with H672N
Procedure: (§1) To assess further the ability of this compound to bind to RNase L, saturation transfer difference (STD) nuclear magnetic resonance (NMR)^20 and circular dichroism (CD) spectroscopic studies were conducted with 6, a compound similar in structure to 5 and a potential intermediate in the synthesis of a resulting RiboTAC (FIGS. 2C & 6B-6C).
(§2) Saturation Transfer Difference (STD) NMR. NMR spectra were acquired at 25° C. on a 600 MHz Bruker Avance III spectrometer equipped with a cryoprobe. Samples were prepared by drying 6 (120 nmol) to a solid and resuspending in deuterated DMSO (4 μL). […] The STD spectra were recorded as an interleaved experiment (n=2) with one experiment including a saturating pulse at −40 ppm for 2 s and one at 0.8 ppm for 2 s. Both spectra were processed with identical phasing before calculating the difference spectra (A) using TopSpin 4.0.6 (Bruker).

lysozyme = experiment: Saturation transfer difference (STD) NMR, control protein; format: binding; conditions: 3 μM protein, 300 μM compound
Procedure: as §1, §2

RNase L [4] = target: T2, RNase L; experiment: Circular dichroism (CD) spectroscopy; format: binding; conditions: 10 μM inactive RNase L, 75 μM compound
Procedure: as §1
Circular Dichroism (CD) Spectroscopy. […] CD wavelength scans were completed from 190 to 260 nm. […] The spectra were plotted and compared in GraphPad Prism.

pre-miR-21 and RNase L = target: T3, pre-miR-21 and RNase L (Homo sapiens, UniProt Q05823, H672N); experiment: Co-immunoprecipitation of pre-miR-21 and RNase L; format: binding; conditions: WT 32P-pre-miR-21, inactive RNase L
T3 construct: GST (N, cleaved yes); made in house; host or cells: BL21 AI Escherichia coli
T3 sequence (Q05823 1-741 H672N): T1 sequence (Q05823 1-741) with H672N
Procedure: (§3) Co-Immunoprecipitation of pre-miR-2I and RNase L. Approximately 20,000 cpm of 32P 5′-end labeled WT or mutant pre-miR-21 or an RNA construct where the A-bulge was mutated to a base pair (5′-[…] UGGGCUGU-3′) was folded in 1× RNase L Assay Buffer for 1 min at 95° C. and cooled on ice for 10 min. Following cooling, β-mercaptoethanol (7 mM), ATP (50 μM), and MgCl2 (1 mM) were added to the solution. The solution was aliquoted, and compounds were incubated in solution for 15 min (1% DMSO final concentration). […] Beads were then washed with 1×PBS supplemented with 0.02% (v/v) Tween-20. Radioactive signal in the supernatant and associated with the beads was quantified by a Beckman Coulter LS6500 Liquid Scintillation Counter. Relative RNA enrichment was calculated by comparing the radioactive signal associated with beads compared to the total radioactive signal from the beads plus the supernatant.

[5] = target: T4, pre-miR-21 mutant and RNase L (Homo sapiens, UniProt Q05823, H672N); experiment: Co-immunoprecipitation of mutant pre-miR-21 and RNase L; format: binding; conditions: base paired mutant pre-miR-21, inactive RNase L
T4 construct: GST (N, cleaved yes); made in house; host or cells: BL21 AI Escherichia coli
T4 sequence (Q05823 1-741 H672N): T1 sequence (Q05823 1-741) with H672N
Procedure: as §3

[6] = test system: phosphorylation of extracellular signal-regulated kinase (ERK); experiment: Western blot of pERK versus ERK (RTK signaling); format: cell-based; conditions: Homo sapiens; CRISPR-Control sgRNA MDA-MB-231 cells; read-out: IC50 for inhibition of phosphorylation of ERK
Procedure: Quantification of Protein Levels by Western Blotting. MDA-MB-231 cells were treated as described in “Cell Culture.” After treatment, the medium was removed, and the cells were washed with 1× Dulbecco's phosphate-buffered saline (DPBS). Total protein was extracted using Mammalian Protein Extraction Reagent (M-PER, Thermo Scientific) according to the manufacturer's protocol. Protein concentration was measured using a Pierce Micro BCA Protein Assay kit (Fisher Scientific). Approximately 20 μg total protein was loaded onto a Tris-glycine gel with a 5% polyacrylamide stacking layer and a 10% polyacrylamide resolving layer. The gel was run at 140 V for ˜1.5 h in 1× Running Buffer (25 mM Tris base, pH 8.3, 190 mM glycine, and 0.1% (w/v) SDS). After electrophoresis, the protein was transferred to a PVDF membrane using 1× Transfer Buffer (25 mM Tris base, pH 8.3, 190 mM glycine, and 20% (v/v) methanol). The membrane was then washed with 1×TBST (Tris-buffered saline with 0.1% (v/v) Tween 20) and blocked in a solution of 5% (w/v) milk in 1×TBST for 30 min with shaking at room temperature. The membrane was then incubated overnight at 4° C. in a solution of primary antibody diluted in 1×TBST containing 5% (w/v) milk. […]

SMILES: CCCCCCCCc1ccsc1-c1cccc(-c2ccc(CN(C)[C@H](C(=O)NC)c3ccccc3)cc2)c1 [Compound 2, (S)—N-methyl-2-(methyl((3′-(3-octylthiophen-2-yl)-[1,1′-biphenyl]-4-yl)methyl)amino)-2-phenylacetamide]
Relative RNA Cleavage (cleavage of fluorescently labeled RNA, RNase L activation) (RNase L [1]): induced dose-dependent RNA cleavage to a greater extent than 1
RNase L dimerization (RNase L [2]): induces RNase L dimerization

SMILES: CNC(=O)[C@H](c1ccccc1)N(C)Cc1ccc(-c2cccc(-c3sccc3N)c2)cc1 [Compound 4, (S)-2-(((3′-(3-aminothiophen-2-yl)-[1,1′-biphenyl]-4-yl)methyl)-(methyl)amino)-N-methyl-2-phenylacetamide]
Relative RNA Cleavage (cleavage of fluorescently labeled RNA, RNase L activation) (RNase L [1]): enhanced RNA cleavage compared to 2

SMILES: CNC(=O)[C@H](c1ccccc1)N(C)Cc1ccc(-c2cccc(-c3sccc3NC(=O)CCOCCOCCOCCC(=O)OC(C)(C)C)c2)cc1 [Compound 5, tert-butyl (S)-3-(2-(2-(3-((2-(4′-((methyl(2-(methylamino)-2-oxo-1-phenylethyl)-amino)methyl)-[1,1′-biphenyl]-3-yl)thiophen-3-yl)amino)-3-oxopropoxy)ethoxy)-ethoxy) propanoate]
Relative RNA Cleavage (cleavage of fluorescently labeled RNA, RNase L activation) (RNase L [1]): retained RNase L activation activity

Second part, led by results:

Relative RNA Cleavage (RNase L [1]; 50 μM, highest level of cleavage observed, set to 1): 1
CD signal of RNase L upon addition of compound (RNase L [4]): increase in signal intensity at 220 nm
co-immunoprecipitation of RNA with RNase L (pre-miR-21 and RNase L): Neither RNA was pulled down
co-immunoprecipitation of RNA with RNase L [5]: Neither RNA was pulled down
SMILES: CNC(=O)[C@H](c1ccccc1)N(C)Cc1ccc(-c2cccc(-c3sccc3NC(=O)CCOCCOCCOCCC(=O)O)c2)cc1 [Compound 6, (S)-3-(2-(2-(3-((2-(4′-((methyl(2-(methylamino)-2-oxo-1-phenylethyl)amino)methyl)-[1,1′-biphenyl]-3-yl)thiophen-3-yl)amino)-3-oxopropoxy)ethoxy)ethoxy)propanoic acid]
STD-NMR transfer of magnetization (RNase L [3]): transfer of magnetization from the compound to RNase L
STD-NMR transfer of magnetization (lysozyme): no transfer was observed

IC50 [6]: ~1 µM
SMILES: CN1CCN(c2ccc3nc(-c4c(N)c5c(F)cccc5[nH]c4=O)[nH]c3c2)CC1 [Dovitinib, reference compound]
